Measured values taken from US20240199555A1, “APPLICATIONS OF BIASED LIGANDS OF THE SEROTONIN 5-HT7 RECEPTOR FOR THE TREATMENT OF PAIN, MULTIPLE SCLEROSIS AND THE CONTROL OF THERMOREGULATION” (Centre National de la Recherche Scientifique, priority 2021, published 2024).
Where two headings read alike, the source gives them in different places.

Tests used:
human 5-HT7a receptor = human 5-HT7a receptor (Homo sapiens (Human), UniProt P34969); test: Radioligand binding competition, filtration binding assay, 5-HT7a; conditions: affinity on 5-HT7 receptor, table of new compounds
Description: (§1) FIG. 14: Testing of 8 molecules for radioligand binding competition activity on recombinant human 5-HT1A, 5-HT2A, 5-HT2Cedited, 5-HT6, 5-HT7 and D2(long) receptors using filtration binding assays.
(§2) Radioligand Binding experiments were conducted with Epics Therapeutics membrane preparations. Receptor accession numbers, cellular background and reference compounds are shown in this table.
Reference values thus obtained for the test were compared to historical values obtained from the same receptor and used to validate the experimental session. For replicate determinations, the maximum variability tolerated in the test was of +/−20% around the average of the replicates.
(§3) Dose-response data from test compounds were analyzed with XLfit (IDBS) software using nonlinear regression applied to a sigmoidal dose-response model and the following equation: • XL Fit fit Model 203: 4 Parameter Logistic Model • A: Bottom • B: TOP • C: LogEC50 • D: Hill

human 5-HT1A receptor = human 5-HT1A receptor (Homo sapiens (Human), UniProt P08908); test: Radioligand binding competition, 5-HT1A; conditions: selectivity panel; for IC50: read-out: RLB 5-HT1A IC50; for Ki: read-out: RLB 5-HT1A Ki
Description: as §1, §2
(§4) The new compounds have been tested by radioligand binding competition activity at the human 5-HT1A (FAST-0500B), 5-HT2A (FAST-0505B), 5-HT2Cedited (FAST-0507B), 5-HT6 (FAST-0509B), 5-HT7a (FAST-05111B) and D2(long) (FAST-0101B) receptors at seven (7) concentrations, in duplicate. […] Reference values thus obtained for the test were compared to historical values obtained from the same receptor and used to validate the experimental session. For replicate determinations, the maximum variability tolerated in the test was of +/−20% around the average of the replicates.
as §3

human 5-HT2A receptor = human 5-HT2A receptor (Homo sapiens (Human), UniProt P28223); test: Radioligand binding competition, 5-HT2A; conditions: selectivity panel; for IC50: read-out: RLB 5-HT2A IC50; for Ki: read-out: RLB 5-HT2A Ki
Description: as §1, §2, §4, §3

[1] = target: human 5-HT2Cedited receptor (Homo sapiens, UniProt P28335); test: Radioligand binding competition, 5-HT2Cedited
Description: as §1, §2, §4, §3

mice [2] = test: Tail immersion test (50° C.); type: in vivo; conditions: administrated alone, i.p.
Description: (A) Experimental protocol summary used. (B) Mice were subcutaneously injected with two different doses of the 5-HT7 receptor agonist Serodolin, 1 mg/kg or 5 mg/kg and 10 min later their tail extremity was immersed in water heated to 50 degrees. […] The effect of injections (Serodolin or E55888) was evaluated at TO, 30 min and 60 min corresponding to 10, 40 and 70 min after compound injections. […] Their tail extremity was immersed in water heated to 50 degrees at TO (E) or 30 min later (F) corresponding to 10 and 40 min after agonist injections. […] Statistical analysis was done using Tukey's multiple comparison test.
Tail immersion test. Nociception was assessed with the tail immersion test, 10 min and 40 min after E55888 (5 mg/kg) or Serodolin (5 mg/kg) tail subcutaneous injections, in the water heated to 50° C. Vehicle (20% DMSO, 5% Tween 80 diluted in PBS solution) was used as a control group. These different groups were intraperitoneally injected (+) or not (−) with the 5-HT7R antagonist SB269960 (5 mg/kg) 10 min before the ligand injection. The tail withdrawal latency (s) was measured for each animal.

Sprague-Dawley male rats = test: Formalin induced inflammatory pain model; type: in vivo; conditions: single s.c., Serodolin 10 mg/kg, MOA51 1 mg/kg, morphine
Description: FIG. 18: Effect of a single administration of Serodolin (AIC01) or MOA51 in the formalin test in rats. Effect of a single subcutaneous administration of Serodolin (AIC01) or MOA51 in the formalin test in rats. In this test, Sprague-Dawley male rats received unilateral injection of a 2.5% formalin solution (50 μl) into the plantar aspect of the hindpaw on testing day (i.e. D0). Control group received Vehicle (20% DMSO/5% Tween 80/NaCl). Serodolin was subcutaneously (sc) administrated at 10 mg/kg and MOA51 at 1 mg/kg. Positive control animals were treated with morphine (3 mg/kg, sc). Paw licking time was measured. Results are expressed as mean±s.e.m. Percentage are expressed as decreased as compared to the vehicle-treated group and represented as figure (B). ***: p<0.001 as compared to the vehicle-treated group, Bonferroni's test after significant Two-way Repeated Measures ANOVA. NS: Non-significant.
Sprague-Dawley male rats (n=10 rats per group) received unilateral injection of a 2.5% formalin solution (50 μl) into the plantar aspect of the hindpaw on testing day (i.e. D0). Experience was separated into 4 groups of animals. Formalin animals+vehicle-treated group; […]—Formalin animals+Sponsor's Serodolin (10 mg/kg), s.c.—Formalin animals+Sponsor's MOA51 (1 mg/kg), s.c.—Formalin animals+internal validator-treated group (Morphine at 4 mg/Kg, s.c.). Single subcutaneous administration of the Vehicle and Sponsor's Compound 30 min (or other timing depending on Sponsor's design) before formalin injection on testing day (i.e. D0)/Subcutaneous administration of Morphine 30 min before formalin injection on testing day (i.e. D0). Hindpaw licking time recorded in consecutive 5 minutes periods from 0 to 5 minutes (early phase) and 17 to 27 minutes (late phase) after formalin injection.
We evaluated the effect of Serodolin as well as MOA51 in rats in the formalin test, an acute and tonic pain model based on the use of a chemical stimulus. Subcutaneous injection of formalin into the right hindpaw produces a biphasic painful response of increasing and decreasing intensity for about 30 minutes after the injection. […] Although not significant, Serodolin, MOA51 and morphine have an inhibitory effect (−40%, −35% and −57% respectively) during the early phase.

mice [3] = test: Acetic acid-induced writhing test; type: in vivo; conditions: 3 mg/kg, s.c., positive control
Description: (§5) FIG. 9: Analgesic effect of Serodolin in the acetic acid-induced writhing test. In this test, nociception was induced by an intraperitoneally injection (ip) of 0.1 ml/10 g acid acetic solution (10 ml/kg) in peripheral origin. Serodolin at increasing dosage was administrated by oral (po), intravenous (iv) or subcutaneous (sc) route before acid acetic injection (upper panel). Positive control animals were pretreated morphine (3 mg/kg, sc) 10 minutes before acetic acid. Five minutes after i.p. injection of acetic acid the number of writhing was recorded for 10 minutes. Data mean±SEM of values obtained from a representative experiment (n=10 animals/group). ****p<0.0001 ***p<0.001 **p<0.01 *p<0.05 as compared with the control group (Vh).
as §5, with “16:” for “9:”, “MOA51” for “Serodolin”, “i.p.injection” for “i.p. injection”, “animals/group).” for “animals/group). ****p<0.0001 ***p<0.001”, “**p<0.01” for “**p<0.01 *p<0.05”
Writhing tests: Mice (25-35 g). Groups of mice (n=10) received by oral, subcutaneous or intravenous route Serodolin at different doses (0.1-10 mg/kg) one hour before intraperitoneally injection of 1% acetic acid in a volume of 10 ml/kg. Control group received vehicle (10 ml/kg, solution of 20% DMSO and 5% tween 80). The test was carried out 5 minutes later after acid acetic injection. The characteristic writhing responses have been observed individually and counted for 10 minutes.
Analgesic activity was first evaluated using the acetic acid abdominal constriction test (writhing test), a chemical model of visceral pain. We evaluated the dose-response effect of Serodolin following single oral, intravenous and subcutaneous administration of the compound one hour before injection of acetic acid.
Analgesic activity was evaluated using the acetic acid abdominal constriction test (writhing test), a chemical model of visceral pain. We evaluated the dose-response effect of MOA51 following single oral, intravenous and subcutaneous administration of the compound one hour before injection of acetic acid. MOA51 administered by the oral route induced statistically significant dose-dependent decreases in the number of writhings at and above the dose of 1 mg/kg. By the intravenous route, MOA51 induced dose-dependent decreases in the number of writhings at and above the dose of 0.1 mg/kg.

human 5-HT7a receptor, sequence (P34969 other isoform, or with tags, fused parts or gaps): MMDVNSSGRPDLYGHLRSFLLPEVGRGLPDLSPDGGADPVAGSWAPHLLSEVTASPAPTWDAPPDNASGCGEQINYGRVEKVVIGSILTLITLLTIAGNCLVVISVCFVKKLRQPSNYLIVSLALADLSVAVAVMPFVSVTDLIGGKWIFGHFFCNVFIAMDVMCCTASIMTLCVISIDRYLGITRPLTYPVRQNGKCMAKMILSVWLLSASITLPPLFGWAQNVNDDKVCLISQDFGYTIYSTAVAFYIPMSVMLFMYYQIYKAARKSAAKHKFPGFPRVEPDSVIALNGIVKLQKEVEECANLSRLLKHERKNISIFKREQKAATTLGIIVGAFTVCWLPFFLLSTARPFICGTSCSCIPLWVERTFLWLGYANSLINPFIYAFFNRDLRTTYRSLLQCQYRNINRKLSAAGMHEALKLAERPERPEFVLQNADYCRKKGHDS
human 5-HT1A receptor, sequence (P08908 whole entry): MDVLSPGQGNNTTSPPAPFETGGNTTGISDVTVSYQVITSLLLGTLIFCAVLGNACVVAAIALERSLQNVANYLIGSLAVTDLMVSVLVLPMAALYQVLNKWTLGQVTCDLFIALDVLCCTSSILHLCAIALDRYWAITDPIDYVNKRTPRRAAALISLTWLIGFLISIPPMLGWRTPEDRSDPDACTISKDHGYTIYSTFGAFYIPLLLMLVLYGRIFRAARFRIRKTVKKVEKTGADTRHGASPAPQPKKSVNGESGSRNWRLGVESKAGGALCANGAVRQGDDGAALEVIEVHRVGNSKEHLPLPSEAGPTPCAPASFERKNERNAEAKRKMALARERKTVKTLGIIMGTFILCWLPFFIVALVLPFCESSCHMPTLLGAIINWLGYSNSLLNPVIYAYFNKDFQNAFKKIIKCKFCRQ
human 5-HT2Cedited receptor, sequence (P28335 33-458 limits assumed): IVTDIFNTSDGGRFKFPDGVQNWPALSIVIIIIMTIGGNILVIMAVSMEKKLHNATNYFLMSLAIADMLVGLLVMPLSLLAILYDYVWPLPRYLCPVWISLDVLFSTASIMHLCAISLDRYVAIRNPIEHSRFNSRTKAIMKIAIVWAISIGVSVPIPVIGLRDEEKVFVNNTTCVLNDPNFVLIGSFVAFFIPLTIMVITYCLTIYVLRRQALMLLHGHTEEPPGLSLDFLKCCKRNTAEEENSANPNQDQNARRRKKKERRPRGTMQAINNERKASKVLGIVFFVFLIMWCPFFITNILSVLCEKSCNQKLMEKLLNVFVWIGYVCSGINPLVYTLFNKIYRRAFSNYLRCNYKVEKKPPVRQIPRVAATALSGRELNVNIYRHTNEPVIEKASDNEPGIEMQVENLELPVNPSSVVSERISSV
human 5-HT2A receptor, sequence (P28223 whole entry): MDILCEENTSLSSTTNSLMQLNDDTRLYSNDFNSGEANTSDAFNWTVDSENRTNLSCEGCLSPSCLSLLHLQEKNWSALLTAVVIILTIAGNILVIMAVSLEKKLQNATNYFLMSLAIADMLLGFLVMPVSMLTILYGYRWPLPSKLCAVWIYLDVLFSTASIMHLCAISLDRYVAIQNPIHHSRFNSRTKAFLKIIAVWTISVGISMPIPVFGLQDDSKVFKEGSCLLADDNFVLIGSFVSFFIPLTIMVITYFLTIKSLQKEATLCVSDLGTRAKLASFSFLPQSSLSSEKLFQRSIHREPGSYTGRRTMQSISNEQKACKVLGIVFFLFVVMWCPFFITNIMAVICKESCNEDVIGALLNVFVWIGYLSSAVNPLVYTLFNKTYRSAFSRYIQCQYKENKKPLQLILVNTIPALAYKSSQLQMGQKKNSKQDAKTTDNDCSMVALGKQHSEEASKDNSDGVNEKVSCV

SMILES	IC50 (human 5-HT7a receptor) [nM]	Ki (human 5-HT7a receptor) [nM]	also measured
O=c1[nH]c2ccccc2n1CCCCCN1CCN(c2ccccc2O)CC1 [JLB010]	7.99	5.61	
O=c1[nH]c2ccccc2n1CN1CCN(c2ccccc2C(F)(F)F)CC1 [JLB011]	4.74	3.33	
O=c1[nH]c2ccccc2n1CCCCCN1CCN(c2ccccn2)CC1 [JLB012]	1.69	1.18	IC50 (human 5-HT1A receptor): 41.3 nM; Ki (human 5-HT1A receptor): 20.7 nM; IC50 (human 5-HT2A receptor): 44.2 nM; Ki (human 5-HT2A receptor): 7.3 nM; IC50 ([1]; read-out: RLB 5-HT2Cedited IC50; selectivity panel): 5250 nM; Ki ([1]; read-out: RLB 5-HT2Cedited Ki; selectivity panel): 863 nM
O=c1[nH]c2ccccc2n1CCCCCN1CCN(c2ncccn2)CC1 [JLB013]	9.68	6.8	
O=c1[nH]c2ccccc2n1CCCCCN1CCN(c2ccccc2F)CC1 [JLB014]	3.29	2.31	
O=c1[nH]c2ccccc2n1CCCCCN1CCN(c2ccc(F)cc2)CC1 [JLB015]	4.39	3.09	
O=c1[nH]c2ccccc2n1CCCCCN1CCN(c2ccc(C(F)(F)F)cc2)CC1 [JLB017]	7.19	5.05	
O=c1[nH]c2ccccc2n1CCCCCN1CCN(c2ccncc2)CC1 [JLB020]	260	182	
O=c1[nH]c2ccccc2n1CCCCCN1CCN(c2ccncn2)CC1 [JLB022]	136	95.5	
O=c1[nH]c2ccccc2n1CCCCCN1CCN(c2ncncn2)CC1 [JLB023]	370	260	
O=c1[nH]c2ccccc2n1CCOCCN1CCN(c2ccc(F)cc2)CC1 [JLB048]	19.1	13.4	
O=c1[nH]c2ccccc2n1CCCCCN1C[C@@H]2CN(c3ccc(F)cc3)C[C@@H]2C1 [JLB061]	5.97	4.19	
O=c1[nH]c2ccccc2n1CCCCCN1CC2(C1)CN(c1ccc(F)cc1)C2 [JLB088, 1-(5-(6-(4-fluorophenyl)-2,6-diazaspiro[3.3]heptan-2-yl)pentyl)-1H-benzo[d]imidazol-2(3H)-one]	174	122	
CC(C)(CCN1CCN(c2ccc(F)cc2)CC1)CCn1c(=O)[nH]c2ccccc21 [JLB094]	2.7	1.9	IC50 (human 5-HT1A receptor): 167 nM; Ki (human 5-HT1A receptor): 83.6 nM; IC50 (human 5-HT2A receptor): 6.23 nM; Ki (human 5-HT2A receptor): 1.02 nM; IC50 ([1]; selectivity panel; read-out: RLB 5-HT2Cedited IC50): 1100 nM; Ki ([1]; selectivity panel; read-out: RLB 5-HT2Cedited Ki): 181 nM
O=c1[nH]ccn1CCCCCN1CCN(c2ccc(F)cc2)CC1 [JLB102, 1-(5-(4-(4-fluorophenyl)piperazin-1-yl)pentyl)-1H-imidazol-2(3H)-one]	17	11.9	
O=c1[nH]c2ccccc2n1CCCCCN1CCCN(c2ccccn2)CC1 [JLB118, 1-(5-(4-(pyridin-2-yl)-1,4-diazepan-1-yl)pentyl)-1H-benzo[d]imidazol-2(3H)-one]	69.7	48.9	
Cc1ccc(N2CCCN(CCCCCn3c(=O)[nH]c4ccccc43)CC2)cc1 [JLB119, 1-(5-(4-(p-tolyl)-1,4-diazepan-1-yl)pentyl)-1H-benzo[d]imidazol-2(3H)-one]	24.2	17	
Cc1ccc(N2CC3(CN(CCCCCn4c(=O)[nH]c5ccccc54)C3)C2)cc1 [JLB137, 1-(5-(6-(p-tolyl)-2,6-diazaspiro[3.3]heptan-2-yl)pentyl)-1H-benzo[d]imidazol-2(3H)-one]	687	482	
O=c1[nH]c2ccccc2n1CCCCCN1CC2(C1)CN(c1ccccn1)C2 [JLB138, 1-(5-(6-(pyridin-2-yl)-2,6-diazaspiro[3.3]heptan-2-yl)pentyl)-1H-benzo[d]imidazol-2(3H)-one]	5070	3560	
O=c1[nH]c2ccccc2n1CCCCCN1CCN(c2ccc(O)cc2)CC1 [MOA43]	1.95	1.37	
CC1CCN(CC[C@H]2CCCN2S(=O)(=O)c2cccc(O)c2)CC1 [SB269970, reference compound]			acute thermal nociception, antagonist administrated alone (mice [2]): did not exert any significant effect on acute thermal nociception
CN1CC[C@]23c4c5ccc(O)c4O[C@H]2[C@@H](O)C=C[C@H]3[C@H]1C5 [morphine, reference compound]			inhibitory effect on paw licking, early phase (Sprague-Dawley male rats; 0 to 5 minutes, not significant): −57%; inhibition of licking, late phase (Sprague-Dawley male rats; 17 to 27 minutes): −64%; inhibition of the writhing assay response (mice [3]): full inhibition
